Assay results published in publication PMC5218480 (PLoS ONE, 2017).

Tested on: MV-4-11 cells
Assay: Gene expression microarray analysis (Affymetrix PrimeView) and GSEA
Type: cell-based, human
Set-up: RFU PODN (11730768_x_at) / Fold change /veh PODN (11730768_x_at) / RFU LINC00158 (11744669_a_at) / Fold change /veh LINC00158 (11744669_a_at) / RFU DUSP10 (11751237_a_at) / Fold change /veh DUSP10 (11751237_a_at) / RFU ID3 (11757404_x_at) / Fold change /veh ID3 (11757404_x_at) / RFU PLEKHG5 (11737974_s_at) / Fold change /veh PLEKHG5 (11737974_s_at) / RFU LRRC4B (11730491_at) / Fold change /veh LRRC4B (11730491_at) / RFU GIMAP4 (11747438_a_at) / Fold change /veh GIMAP4 (11747438_a_at) / RFU KRT8 (11758183_x_at) / Fold change /veh KRT8 (11758183_x_at) / RFU CNN1 (11734310_a_at) / Fold change /veh CNN1 (11734310_a_at) / RFU VPS37D (11726825_at) / Fold change /veh VPS37D (11726825_at) / RFU C10orf10 (11716522_x_at) / Fold change /veh C10orf10 (11716522_x_at) / RFU KIR2DL2 /// KIR2DL4 /// KIR2DL5A /// KIR2DL5B /// KIR2DS1 /// KIR2DS2 /// KIR2DS3 /// KIR2DS4 /// KIR3DL3 /// KIR3DL3 /// KIR3DS1 (11738374_at) / Fold change /veh KIR2DL2 /// KIR2DL4 /// KIR2DL5A /// KIR2DL5B /// KIR2DS1 /// KIR2DS2 /// KIR2DS3 /// KIR2DS4 /// KIR3DL3 /// KIR3DL3 /// KIR3DS1 (11738374_at) / RFU C1QL1 (11718748_at) / Fold change /veh C1QL1 (11718748_at) / RFU TMPRSS4 (11747572_a_at) / Fold change /veh TMPRSS4 (11747572_a_at) / RFU HAMP (11756126_x_at) / Fold change /veh HAMP (11756126_x_at) / RFU RNFT2 (11725882_a_at) / Fold change /veh RNFT2 (11725882_a_at) / RFU NR4A2 (11747474_a_at) / Fold change /veh NR4A2 (11747474_a_at) / RFU ABCC12 (11746883_a_at) / Fold change /veh ABCC12 (11746883_a_at) / RFU TMEM136 (11760407_x_at) / Fold change /veh TMEM136 (11760407_x_at) / RFU CLDN22 /// WWC2 (11732394_at) / Fold change /veh CLDN22 /// WWC2 (11732394_at) / RFU HLA-DPB1 (11760878_x_at) / Fold change /veh HLA-DPB1 (11760878_x_at) / RFU SPINT1 (11716480_a_at) / Fold change /veh SPINT1 (11716480_a_at) / RFU GAP43 (11754022_s_at) / Fold change /veh GAP43 (11754022_s_at) / RFU A4GNT (11735810_at) / Fold change /veh A4GNT (11735810_at) / RFU PRB3 (11715151_x_at) / Fold change /veh PRB3 (11715151_x_at) / RFU TUBB4B (11761932_at) / Fold change /veh TUBB4B (11761932_at) / RFU CAPN14 (11732068_a_at) / Fold change /veh CAPN14 (11732068_a_at) / RFU TMCC2 (11721928_a_at) / Fold change /veh TMCC2 (11721928_a_at) / RFU IRGQ (11745062_a_at) / Fold change /veh IRGQ (11745062_a_at) / RFU FAM174B (11720279_a_at) / Fold change /veh FAM174B (11720279_a_at) / RFU TMPRSS4 (11748680_a_at) / Fold change /veh TMPRSS4 (11748680_a_at) / RFU FAM212B (11763350_a_at) / Fold change /veh FAM212B (11763350_a_at) / RFU PLEKHG5 (11743358_a_at) / Fold change /veh PLEKHG5 (11743358_a_at) / RFU ZSCAN30 (11745921_a_at) / Fold change /veh ZSCAN30 (11745921_a_at) / RFU CMKLR1 (11741424_a_at) / Fold change /veh CMKLR1 (11741424_a_at) / RFU LOC101060620 /// MAPK8IP1 (11723275_at) / Fold change /veh LOC101060620 /// MAPK8IP1 (11723275_at) / RFU SPTSSB (11747773_x_at) / Fold change /veh SPTSSB (11747773_x_at) / RFU PRSS12 (11739890_at) / Fold change /veh PRSS12 (11739890_at) / RFU BIN1 (11741810_x_at) / Fold change /veh BIN1 (11741810_x_at) / RFU WNT11 (11732464_a_at) / Fold change /veh WNT11 (11732464_a_at) / RFU C10orf10 (11716521_a_at) / Fold change /veh C10orf10 (11716521_a_at) / RFU C5orf56 (11738089_at) / Fold change /veh C5orf56 (11738089_at) / RFU CYB561 (11721691_x_at) / Fold change /veh CYB561 (11721691_x_at) / RFU ANKRD19P (11752326_a_at) / Fold change /veh ANKRD19P (11752326_a_at) / RFU OR2T12 /// OR2T33 /// OR2T8 (11738714_s_at) / Fold change /veh OR2T12 /// OR2T33 /// OR2T8 (11738714_s_at) / RFU VCAN (11748164_a_at) / Fold change /veh VCAN (11748164_a_at) / RFU JSRP1 (11732532_at) / Fold change /veh JSRP1 (11732532_at) / RFU KRTAP10-11 (11738290_x_at) / Fold change /veh KRTAP10-11 (11738290_x_at) / RFU MYO3A (11730013_a_at) / Fold change /veh MYO3A (11730013_a_at) / RFU EBF3 (11725865_a_at) / Fold change /veh EBF3 (11725865_a_at) / RFU CAMK2N1 (11719241_x_at) / Fold change /veh CAMK2N1 (11719241_x_at) / RFU C5orf56 (11738088_a_at) / Fold change /veh C5orf56 (11738088_a_at) / RFU OLFML3 (11715873_a_at) / Fold change /veh OLFML3 (11715873_a_at) / RFU LOC100653217 /// NTM (11731650_a_at) / Fold change /veh LOC100653217 /// NTM (11731650_a_at) / RFU MAPK11 (11762145_a_at) / Fold change /veh MAPK11 (11762145_a_at) / RFU FIZ1 (11724087_x_at) / Fold change /veh FIZ1 (11724087_x_at) / RFU OASL (11726364_x_at) / Fold change /veh OASL (11726364_x_at) / RFU SOX15 (11748057_x_at) / Fold change /veh SOX15 (11748057_x_at) / RFU CD79A (11719716_a_at) / Fold change /veh CD79A (11719716_a_at) / RFU HIST1H1D (11736915_at) / Fold change /veh HIST1H1D (11736915_at) / RFU CASKIN2 (11723855_a_at) / Fold change /veh CASKIN2 (11723855_a_at) / RFU LOC730098 (11760151_x_at) / Fold change /veh LOC730098 (11760151_x_at) / RFU OR4N2 (11742367_at) / Fold change /veh OR4N2 (11742367_at) / RFU PRRT2 (11749266_a_at) / Fold change /veh PRRT2 (11749266_a_at) / RFU SNX32 (11753110_a_at) / Fold change /veh SNX32 (11753110_a_at) / RFU CDHR5 (11726645_a_at) / Fold change /veh CDHR5 (11726645_a_at) / RFU RCAN1 (11760418_a_at) / Fold change /veh RCAN1 (11760418_a_at) / RFU FAM167A (11723789_a_at) / Fold change /veh FAM167A (11723789_a_at) / RFU FAM26E (11764081_at) / Fold change /veh FAM26E (11764081_at) / RFU ISYNA1 (11749810_s_at) / Fold change /veh ISYNA1 (11749810_s_at) / RFU ACY1 (11761880_at) / Fold change /veh ACY1 (11761880_at) / RFU 11764098_at / Fold change /veh 11764098_at / RFU SAMD14 (11745864_x_at) / Fold change /veh SAMD14 (11745864_x_at) / RFU NPB (11741838_a_at) / Fold change /veh NPB (11741838_a_at) / RFU TMPRSS6 (11731388_a_at) / Fold change /veh TMPRSS6 (11731388_a_at) / RFU KRTAP10-2 (11738614_at) / Fold change /veh KRTAP10-2 (11738614_at) / RFU ARHGAP8 /// PRR5-ARHGAP8 (11727945_x_at) / Fold change /veh ARHGAP8 /// PRR5-ARHGAP8 (11727945_x_at) / RFU KRTAP5-7 /// NADSYN1 (11734609_at) / Fold change /veh KRTAP5-7 /// NADSYN1 (11734609_at) / RFU RASL12 (11751679_a_at) / Fold change /veh RASL12 (11751679_a_at) / RFU CDKN2B (11736163_a_at) / Fold change /veh CDKN2B (11736163_a_at) / RFU PRF1 (11729649_at) / Fold change /veh PRF1 (11729649_at) / RFU, ZNF638 /// ZNF638-IT1 / Fold change vs veh, ZNF638 /// ZNF638-IT1 / RFU, PANK3 / Fold change vs veh, PANK3 / RFU, SH3YL1 / Fold change vs veh, SH3YL1 / RFU, ZEB2 / Fold change vs veh, ZEB2 / RFU, NRIP1 / Fold change vs veh, NRIP1 / RFU, PTTG1IP / Fold change vs veh, PTTG1IP / RFU, CAPN2 / Fold change vs veh, CAPN2 / RFU, MED14 / Fold change vs veh, MED14 / RFU, SNORA58 / Fold change vs veh, SNORA58 / RFU, C1orf63 / Fold change vs veh, C1orf63 / RFU, LRRFIP1 / Fold change vs veh, LRRFIP1 / RFU, NDUFAF7 / Fold change vs veh, NDUFAF7 / RFU, SLC12A2 / Fold change vs veh, SLC12A2 / RFU, IBTK / Fold change vs veh, IBTK / RFU, ESF1 / Fold change vs veh, ESF1 / Fold change vs veh, TMEM50B / RFU, TAOK1 / Fold change vs veh, TAOK1 / RFU, ACBD3 / Fold change vs veh, ACBD3 / RFU, TMA16 / Fold change vs veh, TMA16 / RFU, RWDD3 / Fold change vs veh, RWDD3 / RFU, BCAT1 / Fold change vs veh, BCAT1 / RFU, EDEM3 / Fold change vs veh, EDEM3 / RFU, TMEM33 / Fold change vs veh, TMEM33 / RFU, WDR75 / Fold change vs veh, WDR75 / RFU, AHCTF1 / Fold change vs veh, AHCTF1 / RFU, TFRC / Fold change vs veh, TFRC / RFU, ZDHHC17 / Fold change vs veh, ZDHHC17 / RFU, NOM1 / Fold change vs veh, NOM1 / RFU, ARL8B / Fold change vs veh, ARL8B / RFU, ZBTB11 / Fold change vs veh, ZBTB11 / RFU, TAMM41 / Fold change vs veh, TAMM41 / RFU, KIAA1704 /// LOC100996395 / Fold change vs veh, KIAA1704 /// LOC100996395 / RFU, ING1 / Fold change vs veh, ING1 / RFU, TRMT61B / Fold change vs veh, TRMT61B / RFU, FUBP3 / Fold change vs veh, FUBP3 / RFU, TP53 / Fold change vs veh, TP53 / RFU, TNKS2 / Fold change vs veh, TNKS2 / RFU, ZFP14 / Fold change vs veh, ZFP14 / RFU, ACTR2 / Fold change vs veh, ACTR2 / RFU, PPP3R1 / Fold change vs veh, PPP3R1 / RFU, PIK3R1 / Fold change vs veh, PIK3R1 / RFU, HNRNPA1 / Fold change vs veh, HNRNPA1 / RFU, RNF170 / Fold change vs veh, RNF170 / RFU, ZNF28 / Fold change vs veh, ZNF28 / RFU, RNGTT / Fold change vs veh, RNGTT / RFU, OGT / Fold change vs veh, OGT / RFU, BRD1 / Fold change vs veh, BRD1 / RFU, MARS / Fold change vs veh, MARS / RFU, ZNF655 / Fold change vs veh, ZNF655 / RFU, FAHD1 / Fold change vs veh, FAHD1 / RFU, BDP1 / Fold change vs veh, BDP1 / RFU, LRRCC1 / Fold change vs veh, LRRCC1 / RFU, ARID1A / Fold change vs veh, ARID1A / RFU, ZNF146 / Fold change vs veh, ZNF146 / RFU, ZNF330 / Fold change vs veh, ZNF330 / RFU, GPN3 / Fold change vs veh, GPN3 / RFU, C9orf123 / Fold change vs veh, C9orf123 / RFU, N4BP2L2 / Fold change vs veh, N4BP2L2 / RFU, ARFIP1 / Fold change vs veh, ARFIP1 / RFU, FAM179B / Fold change vs veh, FAM179B / RFU, BCL10 / Fold change vs veh, BCL10 / RFU, UHRF1BP1L / Fold change vs veh, UHRF1BP1L / RFU, BET1 / Fold change vs veh, BET1 / RFU, CNOT2 / Fold change vs veh, CNOT2 / RFU, ZNF268 / Fold change vs veh, ZNF268 / Fold change vs veh, ZNF507 / RFU, DGCR2 / Fold change vs veh, DGCR2 / RFU, WDSUB1 / Fold change vs veh, WDSUB1 / Fold change vs veh, HSP90B1 /// MIR3652 / RFU, ADSS / Fold change vs veh, ADSS / RFU, GK / Fold change vs veh, GK / RFU, ZNF148 / Fold change vs veh, ZNF148 / RFU, TAF9 / Fold change vs veh, TAF9 / RFU, SLC1A5 / Fold change vs veh, SLC1A5 / RFU, SLMO2 / Fold change vs veh, SLMO2 / RFU, ABCC4 / Fold change vs veh, ABCC4 / RFU, LOC101060439 /// RAP1B / Fold change vs veh, LOC101060439 /// RAP1B / RFU, RFX7 / Fold change vs veh, RFX7 / RFU, GTPBP10 / Fold change vs veh, GTPBP10 / RFU, CNEP1R1 / Fold change vs veh, CNEP1R1 / RFU, BIVM-ERCC5 /// ERCC5 / Fold change vs veh, BIVM-ERCC5 /// ERCC5 / RFU, ILF3 / Fold change vs veh, ILF3 / RFU 11762660_at / Fold change /veh 11762660_at / RFU VCAN (11757783_s_at) / Fold change /veh VCAN (11757783_s_at) / RFU DDX43 (11728927_at) / Fold change /veh DDX43 (11728927_at) / RFU KRT8 (11758188_x_at) / Fold change /veh KRT8 (11758188_x_at) / RFU NKD1 (11759106_at) / Fold change /veh NKD1 (11759106_at) / RFU SRD5A1 (11742802_a_at) / Fold change /veh SRD5A1 (11742802_a_at) / RFU TPSAB1 /// TPSB2 (11721975_s_at) / Fold change /veh TPSAB1 /// TPSB2 (11721975_s_at) / RFU GSTM3 (11746129_a_at) / Fold change /veh GSTM3 (11746129_a_at) / RFU IL23R (11737362_x_at) / Fold change /veh IL23R (11737362_x_at) / RFU TMEM51 (11727254_a_at) / Fold change /veh TMEM51 (11727254_a_at) / RFU PIWIL2 (11732686_x_at) / Fold change /veh PIWIL2 (11732686_x_at) / RFU ORM1 (11744905_x_at) / Fold change /veh ORM1 (11744905_x_at) / RFU CCDC152 (11743942_at) / Fold change /veh CCDC152 (11743942_at) / RFU ECM1 (11717891_a_at) / Fold change /veh ECM1 (11717891_a_at) / RFU IL23R (11748794_a_at) / Fold change /veh IL23R (11748794_a_at) / RFU TNFAIP8L3 (11732012_x_at) / Fold change /veh TNFAIP8L3 (11732012_x_at) / RFU MBOAT4 (11741988_at) / Fold change /veh MBOAT4 (11741988_at) / RFU 11764193_at / Fold change /veh 11764193_at / RFU TMEM53 (11763286_at) / Fold change /veh TMEM53 (11763286_at) / RFU MAGEB2 (11727129_at) / Fold change /veh MAGEB2 (11727129_at) / RFU TMEM200A (11744735_a_at) / Fold change /veh TMEM200A (11744735_a_at) / RFU CCDC152 (11751479_a_at) / Fold change /veh CCDC152 (11751479_a_at) / RFU FAM211A (11726209_a_at) / Fold change /veh FAM211A (11726209_a_at) / RFU RGS16 (11746705_a_at) / Fold change /veh RGS16 (11746705_a_at) / RFU VCAN (11755009_s_at) / Fold change /veh VCAN (11755009_s_at) / RFU RHOB (11743442_s_at) / Fold change /veh RHOB (11743442_s_at) / RFU RGS16 (11720943_a_at) / Fold change /veh RGS16 (11720943_a_at) / RFU RGS16 (11720944_at) / Fold change /veh RGS16 (11720944_at) / RFU, VPS4B / Fold change vs veh, VPS4B / RFU, CREB1 / Fold change vs veh, CREB1 / RFU, DNAJC13 / Fold change vs veh, DNAJC13 / RFU, GNAQ / Fold change vs veh, GNAQ / RFU, CDK5R1 / Fold change vs veh, CDK5R1 / RFU, ZRANB3 / Fold change vs veh, ZRANB3 / RFU, CUL4A / Fold change vs veh, CUL4A / RFU, CCNY / Fold change vs veh, CCNY / RFU, UFL1 / Fold change vs veh, UFL1 / RFU, COG3 / Fold change vs veh, COG3 / RFU, DIAPH2 / Fold change vs veh, DIAPH2 / RFU, SKA2 / Fold change vs veh, SKA2 / RFU, AFF3 / Fold change vs veh, AFF3 / RFU, LMF1 / Fold change vs veh, LMF1 / RFU, IPO11 / Fold change vs veh, IPO11 / RFU, DFFB / Fold change vs veh, DFFB / RFU, FOXP1 / Fold change vs veh, FOXP1 / RFU, CARD8 / Fold change vs veh, CARD8 / RFU, STRN3 / Fold change vs veh, STRN3 / RFU, ADK / Fold change vs veh, ADK / RFU, RASSF2 / Fold change vs veh, RASSF2 / RFU, WIPF1 / Fold change vs veh, WIPF1 / RFU, LARP1B / Fold change vs veh, LARP1B / RFU, RASA1 / Fold change vs veh, RASA1 / RFU, RB1 / Fold change vs veh, RB1 / RFU, PPFIA1 / Fold change vs veh, PPFIA1 / RFU, MAT2A / Fold change vs veh, MAT2A / RFU, CCT5 / Fold change vs veh, CCT5 / RFU, WDR92 / Fold change vs veh, WDR92 / RFU, CUX1 / Fold change vs veh, CUX1 / RFU, TTC7A / Fold change vs veh, TTC7A / RFU, TMEM135 / Fold change vs veh, TMEM135 / RFU, DEPTOR / Fold change vs veh, DEPTOR / RFU, CPM / Fold change vs veh, CPM / RFU, DNAJB6 / Fold change vs veh, DNAJB6 / RFU, CACNA2D3 / Fold change vs veh, CACNA2D3 / RFU, DTX4 / Fold change vs veh, DTX4 / RFU, TFCP2 / Fold change vs veh, TFCP2 / RFU, GMCL1 /// GMCL1P1 / Fold change vs veh, GMCL1 /// GMCL1P1 / RFU, AEBP2 / Fold change vs veh, AEBP2 / RFU, SNHG1 /// SNORD22 /// SNORD25 /// SNORD26 /// SNORD27 /// SNORD28 /// SNORD29 /// SNORD31 / Fold change vs veh, SNHG1 /// SNORD22 /// SNORD25 /// SNORD26 /// SNORD27 /// SNORD28 /// SNORD29 /// SNORD31 / Fold change (Aza/veh), C12orf56 (ProbeSet 11735607_a_at) / Fold change (ACY-1035/veh), C12orf56 (ProbeSet 11735607_a_at) / Fold change (Aza/veh), FGFR1OP (ProbeSet 11751329_s_at) / Fold change (ACY-1035/veh), FGFR1OP (ProbeSet 11751329_s_at) / Fold change (Aza/veh), VPS36 (ProbeSet 11739960_a_at) / Fold change (ACY-1035/veh), VPS36 (ProbeSet 11739960_a_at) / RFU SYPL1 (11715823_x_at) / Fold change /veh SYPL1 (11715823_x_at) / RFU IGFBP7 (11715501_s_at) / Fold change /veh IGFBP7 (11715501_s_at) / RFU REEP3 (11722064_at) / Fold change /veh REEP3 (11722064_at) / RFU IGLL1 (11728026_x_at) / Fold change /veh IGLL1 (11728026_x_at): dose or concentration left out as unconfirmed
Conditions: MV-4-11 cells, 48 hours

Nc1ncn([C@@H]2O[C@H](CO)[C@@H](O)[C@H]2O)c(=O)n1 [azacitidine]
RFU WNT11 (11732464_a_at): 6.46 RFU
